pIC50: −log10 of the molar value. Where two headings read alike, the source gives them in different places.
Assays:
[1] = test system: K562 (myelogenous leukemia cell line); assay: MTT cytotoxicity assay, K562; type: cell-based, human; conditions: 48 h incubation, average (SD) of three experiments, read-out: IC50 K562
[2] = Lipophilicity (logkw) by reversed-phase chromatography (RP-HPLC); type: physicochemical; conditions: for logkw (Experimental): extrapolated to pure water; for logkw (Table S2): intercept of logk vs methanol fraction, n = 4
From the text: The main goal of the synthetic part was the synthesis of new derivatives of dicarboximides with decreased lipophilicity in comparison to the lead compounds, i.e., Ia–Ie and II. To reduce the lipophilicity of the new dicarboximides, a hydroxyalkyl chain connected with an aliphatic amine was introduced to the imides (Scheme 1). At the same time, the imide scaffold in derivatives from group 2 and 3 was the same as in lead compounds Ia–Ie and II, respectively (Figure 1). The structure of the imide was changed in derivatives 1b–1g. The lipophilicity of new derivatives was calculated using the Osiris Property Explorer program. For some compounds, lipophilicity was determined experimentally by a reversed-phase chromatography (detailed description is given in Materials and Methods and in the Supplementary Data, Table S2). Table 1 summarizes the calculated (clogP) and experimental (logkw) parameters of the lipophilicity of new derivatives.
The reversed-phase high-performance liquid chromatography (RP-HPLC) analysis was performed on a Merck–Hitachi LaChrom Elite System (Merck, Darmstadt, Germany) with diode array detector L-2455, thermostat L-2300, pump L-2130, and autosampler L-2200 and with the Waters XTerra MS RP-18 (3.5 μm, 150 × 4.6 mm) chromatographic column (Waters, Milford, MA, USA) as the stationary phase. The mobile phase consisted of methanol, water, and 0.1% (v/v) formic acid and was degassed by the use of the built-in membrane degasser. The methanol gradient grade for HPLC was purchased from Merck (Merck, Darmstadt, Germany) and formic acid from Polish Reagents (Polish Reagents, Gliwice, Poland); double-distilled water was used. Then, 5 μL of methanolic solutions (0.1%; m/v) of selected samples were applied to the chromatographic column by the use of an autosampler Hitachi L-2200 (LaChrom Elite, Hitachi-Merck, Darmstadt, Germany). The analysis was performed with the flow rate of 0.7 mL min^−1 in isocratic mode using various concentrations of organic modifier (methanol) in binary polar mobile phases; percentages of methanol in water were 45–70% (%, v/v) and changed by 5% per step. Chromatograms were detected at 254 nm and the temperature of the column was 25 °C. All experiments were repeated in triplicate, and the final results were taken to be the arithmetic means. Dead time was measured by the use of uracil (Calbiochem. Merck, Darmstadt, Germany). Statistical and regression analyses were performed using Statistica (ver. 13.3 for Windows). The chromatographic lipophilicity parameters ( logkW ) for selected samples were obtained by the extrapolation of the retention parameter logk to pure water, according to Equation (1):(1) logk=logkw−S·ϕ; where logkW is the value of the retention factor of a substance in pure water, S is the slope of the regression curve, and ϕ is the concentration of the organic modifier. The values of logk were calculated based on the raw HPLC data using the formula (2):(2) logk=logtR−t0/t0; where tR is the retention time and t0 is the dead retention time (determined for uracil).
The chromatographic lipophilicity parameters (logkௐ ) for selected samples were ob‐ tained by the extrapolation of the retention parame te r logk to pure water, according to […]
where logkௐ is the value of the retention factor of a substance in pure water, S is the slope of the regression curve, and φ is the concentration of the organic modifier. The values of logk were ca lcula ted based on the raw HPLC data using the formula: […]
logk ൌ log ሺ௧ೃ ି ௧బ௧బ ሻ (2) where tோ is the retention time and t଴ is the dead retention time (determined for ura‐ cil). The goodness of fit of the equation (1) to the experimental data was classified accord‐ ing to Jaffe (Jaffe, H. H. A Reexamination of the Hammet Equation. Chem. Rev. 1953, 53, In our RP‐HPLC experiments, the goodness of fit of the equation to the experi‐ mental data are excellent in most ca ses (r > 0.99). The F statistic val ues are, in all cases, […]

| Compound | pIC50 [1] | pIC50 ([1]; Homo sapiens, K562, 48 h) | logkw (Experimental) [2] | logkw (Table S2) [2] |
| --- | --- | --- | --- | --- |
| CCC12C(=O)C(CC)(C(c3ccccc3)=C1c1ccccc1)C1C(=O)N(CC(O)CNC(C)(C)C)C(=O)C12 (centres unmarked) [2c, 4-[3-(tert-butylamino)-2-hydroxypropyl]-1,7-diethyl-8,9-diphenyl-4-azatricyclo [5.2.1.0^2,6]dec-8-ene-3,5,10-trione] | 5.40 | > 5.22 | 4.74 | 4.7442 |
| CCN(CC)CC(O)CN1C(=O)C2C(C1=O)C1(CC)C(=O)C2(CC)C(c2ccccc2)=C1c1ccccc1 (centres unmarked) [2d, 4-[3-(diethylamino)-2-hydroxypropyl]-1,7-diethyl-8,9-diphenyl-4-azatricyclo [5.2.1.0^2,6]dec-8-ene-3,5,10-trione] | 5.24 | > 5.22 | 5.10 | 5.1042 |
| CC(C)(C)NCC(O)CN1C(=O)C2C(C1=O)C1(c3ccccc3)CC2(c2ccccc2)C(c2ccccc2)=C1c1ccccc1 (centres unmarked) [3c, 4-[3-(tert-butylamino)-2-hydroxypropyl]-1,7,8,9-tetraphenyl-4-azatricyclo[5.2.1.0^2,6]dec-8-ene-3,5-dione] | – | – | 6.06 | 6.0611 |
| CCN(CC)CC(O)CN1C(=O)C2C(C1=O)C1(c3ccccc3)CC2(c2ccccc2)C(c2ccccc2)=C1c1ccccc1 (centres unmarked) [3d, 4-[3-(diethylamino)-2-hydroxypropyl]-1,7,8,9-tetraphenyl-4-azatricyclo[5.2.1.0^2,6]dec-8-ene-3,5-dione] | 5.49 | > 5.22 | 6.28 | 6.2845 |

— publication PMC8122671, “New Succinimides with Potent Anticancer Activity: Synthesis, Activation of Stress Signaling Pathways and Characterization of Apoptosis in Leukemia and Cervical Cancer Cells” (International Journal of Molecular Sciences, 2021)
